Results reported in publication PMC9820377, “Molecular Characterization and Expression Patterns of Two Pheromone-Binding Proteins from the Diurnal Moth Phauda flammans (Walker) (Lepidoptera: Zygaenoidea: Phaudidae)” (International Journal of Molecular Sciences, 2022).

What was measured:
[1] = target: PflaPBP1 (Phauda flammans, UniProt A0A6M6RBM3); test: Fluorescence competitive binding assay with 1-NPN probe, PflaPBP1; conditions: recombinant protein 2 µM, 1-NPN 2 µM, 50 mM Tris-HCl buffer; for Ki: calculated from IC50 and K1-NPN, pH 7.4; for IC50: pH 7.4, room temperature
Chain of PflaPBP1 (A0A6M6RBM3 entry or part of it): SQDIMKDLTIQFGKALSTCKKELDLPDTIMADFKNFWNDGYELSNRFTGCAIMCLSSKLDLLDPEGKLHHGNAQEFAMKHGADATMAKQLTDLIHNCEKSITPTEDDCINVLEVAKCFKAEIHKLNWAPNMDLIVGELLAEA
Method: (§1) An RF-5301PC fluorescence spectrophotometer (Shimadzu, Kyoto, Japan) was used in this experiment for fluorescence competitive binding analysis with a 1-cm quartz colorimetric cup at room temperature. N-Phenyl-1-naphthylamine (1-NPN) was used as the probe and applied for the suitability test. The 1-NPN was excited at 337 nm, in which the emission spectra were recorded between 350 and 660 nm. The purified PflaPBP1 and PflaPBP2 were diluted to a final concentration of 2 µM of the protein solution in Tris-HCl buffer and titrated with aliquots of 1 mM 1-NPN dissolved in methanol, which were 0, 2, 4, 8, 12, 16, 20 µM. The maximum fluorescence value (manipulate peak pick) of each excitation was recorded. The binding data were obtained from three independent measurements. The dissociation constants of PflaPBP1/PflaPBP2 for 1-NPN were calculated from Scatchard plots of the binding data by using Prism 5 software (GraphPad, La Jolla, CA, USA) with nonlinear regression for the one site-specific binding method.
(§2) The two sex pheromones Z-9-hexadecenal (Z9H, 96.3% chemical purity) and (Z, Z, Z)-9,12,15-octadecatrienal (Z9O, 93% chemical purity) were obtained from Shanghai T & W Pharmaceutical Co., Ltd. (Shanghai, China) and Pherobank BV (Wijk bij Duurstede, The Netherlands). The competitive binding of these two sex pheromone components was measured using 1-NPN (2 µM) as the fluorescent probe with a stoichiometry of 1:1 (protein: ligand). PflaPBP1 or PflaPBP2 was titrated to a final concentration of 2 μmol/L with 50 mM Tris-HCl buffer. The sex pheromone dissolved in methanol was gradually added to the mixed solution of protein and 1-NPN with the final concentration of each ligand added to the sample ranging from 0 μM to 20 μM. All sets of fluorescence spectrophotometers were the same as above. The binding data were obtained from three independent measurements. […] The following formula was adopted to calculate the binding affinities (Ki): Ki=[IC50]/1+[1−NPN/K1−NPN] ) where [1-NPN] is the free concentration of 1-NPN, [IC50] is the ligand concentration replacing 50% of the fluorescence reporter, and K1-NPN is the dissociation constant of the PflaPBP/1-NPN complex. The data were fitted with nonlinear regression model using Prism software (version 5.0).

[2] = target: PflaPBP2 (Phauda flammans, UniProt A0A6M6R985); test: Fluorescence competitive binding assay with 1-NPN probe, PflaPBP2; conditions: recombinant protein 2 µM, 1-NPN 2 µM, 50 mM Tris-HCl buffer; for Ki: calculated from IC50 and K1-NPN, pH 7.4; for IC50: pH 7.4, room temperature
Chain of PflaPBP2 (A0A6M6R985 entry or part of it): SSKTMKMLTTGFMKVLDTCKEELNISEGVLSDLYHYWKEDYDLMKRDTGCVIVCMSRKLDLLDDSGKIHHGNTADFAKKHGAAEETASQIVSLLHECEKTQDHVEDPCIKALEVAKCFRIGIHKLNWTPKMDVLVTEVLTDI
Method: as §1
as §2, with “The sex pheromone dissolved in methanol was gradually added to the mixed solution of protein and 1-NPN with the final concentration of each ligand added to the sample ranging from 0 μM to 20 μM.” left out

SMILES | Ki [1] | IC50 [1] | Ki [2] | IC50 [2]
CC/C=C\C/C=C\C/C=C\CCCCCCCC=O [(Z, Z, Z)-9, 12, 15-octadecatrienal] | 38.5 µM | 52.7 µM | 24.8 µM | 34 µM
CCCCCC/C=C\CCCCCCCC=O [Z-9-hexadecenal] | 21.3 µM | 29.1 µM | 109 µM | 149 µM
